Measured values reported in the supplement of paper PMC12076712.

Assays:
Assay in all cases: pIC50, kinobeads binding competition
[1] = target: TLK1 (UniProt Q9UKI8)
Summary of the method: (§1)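 Jurkat cells were exposed alive to nine compound concentrations (top 30 μM, 1:4 steps) or vehicle for 60 min at 37 °C and then lysed. In a second format, nine concentrations (top 30 μM, 1:5 steps) were incubated for 60 min at 4 °C with Jurkat lysate or with a 1:1:1:1 lysate mix of HEK293, K-562, HepG2 and placenta. Proteins captured on Kinobeads were digested and quantified by TMT10 LC-MS/MS. pIC50 values were derived from logistic dose-response fits (R drc package) of fold changes relative to vehicle, in biological duplicates.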

[2] = target: TRRAP (UniProt Q9Y4A5); details: cell material: Jurkat cells
Summary of the method: as §1

[3] = target: T1, UHMK1 (UniProt Q8TAS1); details: cell material: Jurkat lysate
T1 sequence (whole entry): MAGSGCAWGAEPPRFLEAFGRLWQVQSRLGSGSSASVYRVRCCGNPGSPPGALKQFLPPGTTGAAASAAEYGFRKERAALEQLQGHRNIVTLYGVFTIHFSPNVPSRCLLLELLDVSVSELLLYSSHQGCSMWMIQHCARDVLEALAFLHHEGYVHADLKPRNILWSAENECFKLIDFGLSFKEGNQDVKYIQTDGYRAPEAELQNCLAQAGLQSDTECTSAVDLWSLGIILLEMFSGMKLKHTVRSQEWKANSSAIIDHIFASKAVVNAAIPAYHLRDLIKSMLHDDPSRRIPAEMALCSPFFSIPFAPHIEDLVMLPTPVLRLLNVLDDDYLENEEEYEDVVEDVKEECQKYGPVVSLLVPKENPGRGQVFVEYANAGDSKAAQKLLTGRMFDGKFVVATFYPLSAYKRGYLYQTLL
Summary of the method: as §1

[4] = target: T2, TXK (UniProt P42681)
T2 sequence (whole entry): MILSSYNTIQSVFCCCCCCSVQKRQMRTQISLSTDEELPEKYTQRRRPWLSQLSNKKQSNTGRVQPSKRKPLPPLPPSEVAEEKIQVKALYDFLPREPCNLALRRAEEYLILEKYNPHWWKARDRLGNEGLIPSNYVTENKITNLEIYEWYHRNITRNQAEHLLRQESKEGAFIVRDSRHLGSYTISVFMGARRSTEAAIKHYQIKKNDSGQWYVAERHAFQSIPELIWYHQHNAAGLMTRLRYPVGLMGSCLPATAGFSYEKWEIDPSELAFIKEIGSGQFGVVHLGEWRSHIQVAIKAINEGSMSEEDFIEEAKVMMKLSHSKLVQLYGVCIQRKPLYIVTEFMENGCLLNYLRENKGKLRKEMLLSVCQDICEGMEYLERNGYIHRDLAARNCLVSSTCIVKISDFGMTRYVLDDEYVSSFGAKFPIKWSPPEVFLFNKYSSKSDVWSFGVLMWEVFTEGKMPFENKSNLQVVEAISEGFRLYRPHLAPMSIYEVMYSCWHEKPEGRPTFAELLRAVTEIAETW
Summary of the method: as §1

[5] = target: T3, PRKG2 (UniProt Q13237); details: cell material: Jurkat lysate
T3 sequence (whole entry): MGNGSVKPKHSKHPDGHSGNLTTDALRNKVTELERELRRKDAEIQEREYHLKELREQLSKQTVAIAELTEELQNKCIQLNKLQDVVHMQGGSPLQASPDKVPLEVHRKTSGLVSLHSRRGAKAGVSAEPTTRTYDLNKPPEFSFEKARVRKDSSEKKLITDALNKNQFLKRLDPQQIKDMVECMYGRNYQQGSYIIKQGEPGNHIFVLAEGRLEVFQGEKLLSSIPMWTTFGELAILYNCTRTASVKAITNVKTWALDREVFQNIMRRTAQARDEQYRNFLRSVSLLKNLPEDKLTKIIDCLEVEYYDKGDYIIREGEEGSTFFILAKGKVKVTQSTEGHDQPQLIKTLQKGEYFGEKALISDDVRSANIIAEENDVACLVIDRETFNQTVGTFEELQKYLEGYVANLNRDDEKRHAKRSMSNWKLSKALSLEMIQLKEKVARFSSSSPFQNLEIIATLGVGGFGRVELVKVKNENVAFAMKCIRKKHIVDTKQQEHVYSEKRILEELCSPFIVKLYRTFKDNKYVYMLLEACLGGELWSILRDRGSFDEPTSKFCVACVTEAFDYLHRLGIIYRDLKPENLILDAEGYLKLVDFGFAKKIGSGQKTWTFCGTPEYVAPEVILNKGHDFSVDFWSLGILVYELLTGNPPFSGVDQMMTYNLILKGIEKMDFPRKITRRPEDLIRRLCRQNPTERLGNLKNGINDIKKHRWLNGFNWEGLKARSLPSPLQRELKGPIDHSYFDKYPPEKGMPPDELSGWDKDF
Summary of the method: as §1

[6] = target: RNASEL (UniProt Q05823); details: cell material: Jurkat cells
Summary of the method: as §1

[7] = target: T4, SNRK (UniProt Q9NRH2)
T4 sequence (whole entry): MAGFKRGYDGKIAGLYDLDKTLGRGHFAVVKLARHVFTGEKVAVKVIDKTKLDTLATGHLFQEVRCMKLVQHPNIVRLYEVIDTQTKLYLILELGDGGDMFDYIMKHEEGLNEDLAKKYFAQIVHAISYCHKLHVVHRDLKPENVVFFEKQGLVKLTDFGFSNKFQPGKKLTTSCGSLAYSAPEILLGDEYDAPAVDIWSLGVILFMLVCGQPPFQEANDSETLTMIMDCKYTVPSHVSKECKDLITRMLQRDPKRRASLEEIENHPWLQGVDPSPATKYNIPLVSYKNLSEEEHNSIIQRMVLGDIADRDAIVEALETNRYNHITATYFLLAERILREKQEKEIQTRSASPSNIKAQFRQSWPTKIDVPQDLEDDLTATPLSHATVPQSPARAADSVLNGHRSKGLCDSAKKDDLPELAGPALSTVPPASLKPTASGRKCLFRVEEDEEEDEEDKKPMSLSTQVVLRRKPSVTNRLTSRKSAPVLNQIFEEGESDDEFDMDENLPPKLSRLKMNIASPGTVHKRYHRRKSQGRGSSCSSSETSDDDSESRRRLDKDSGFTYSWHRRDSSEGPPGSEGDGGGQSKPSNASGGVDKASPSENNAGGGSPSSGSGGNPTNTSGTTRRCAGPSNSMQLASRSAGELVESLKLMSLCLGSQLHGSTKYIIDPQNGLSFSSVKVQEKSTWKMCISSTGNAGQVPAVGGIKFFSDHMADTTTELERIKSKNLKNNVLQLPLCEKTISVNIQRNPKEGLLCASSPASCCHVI
Summary of the method: as §1

[8] = target: MAST1 (UniProt Q9Y2H9); details: cell material: Jurkat lysate
Summary of the method: as §1

[9] = target: TLK2 (UniProt Q86UE8); details: cell material: Jurkat cells
Summary of the method: as §1

[10] = target: UniProt P23443
Summary of the method: as §1

Chain of UniProt P23443 (P23443 whole entry, looked up): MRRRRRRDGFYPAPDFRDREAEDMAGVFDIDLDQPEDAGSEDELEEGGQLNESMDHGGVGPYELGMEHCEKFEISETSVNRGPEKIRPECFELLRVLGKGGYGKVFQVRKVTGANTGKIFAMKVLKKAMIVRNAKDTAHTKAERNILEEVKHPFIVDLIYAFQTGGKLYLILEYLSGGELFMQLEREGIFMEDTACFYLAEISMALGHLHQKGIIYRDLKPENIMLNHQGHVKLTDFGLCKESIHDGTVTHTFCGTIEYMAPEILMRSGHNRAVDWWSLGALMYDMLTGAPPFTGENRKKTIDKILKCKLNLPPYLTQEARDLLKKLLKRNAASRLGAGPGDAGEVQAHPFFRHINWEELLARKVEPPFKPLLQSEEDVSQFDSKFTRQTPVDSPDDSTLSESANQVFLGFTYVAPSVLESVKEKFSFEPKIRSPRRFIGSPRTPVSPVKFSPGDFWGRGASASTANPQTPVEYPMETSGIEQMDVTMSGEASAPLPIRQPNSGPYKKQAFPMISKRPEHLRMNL
Chain of MAST1 (Q9Y2H9 whole entry, looked up): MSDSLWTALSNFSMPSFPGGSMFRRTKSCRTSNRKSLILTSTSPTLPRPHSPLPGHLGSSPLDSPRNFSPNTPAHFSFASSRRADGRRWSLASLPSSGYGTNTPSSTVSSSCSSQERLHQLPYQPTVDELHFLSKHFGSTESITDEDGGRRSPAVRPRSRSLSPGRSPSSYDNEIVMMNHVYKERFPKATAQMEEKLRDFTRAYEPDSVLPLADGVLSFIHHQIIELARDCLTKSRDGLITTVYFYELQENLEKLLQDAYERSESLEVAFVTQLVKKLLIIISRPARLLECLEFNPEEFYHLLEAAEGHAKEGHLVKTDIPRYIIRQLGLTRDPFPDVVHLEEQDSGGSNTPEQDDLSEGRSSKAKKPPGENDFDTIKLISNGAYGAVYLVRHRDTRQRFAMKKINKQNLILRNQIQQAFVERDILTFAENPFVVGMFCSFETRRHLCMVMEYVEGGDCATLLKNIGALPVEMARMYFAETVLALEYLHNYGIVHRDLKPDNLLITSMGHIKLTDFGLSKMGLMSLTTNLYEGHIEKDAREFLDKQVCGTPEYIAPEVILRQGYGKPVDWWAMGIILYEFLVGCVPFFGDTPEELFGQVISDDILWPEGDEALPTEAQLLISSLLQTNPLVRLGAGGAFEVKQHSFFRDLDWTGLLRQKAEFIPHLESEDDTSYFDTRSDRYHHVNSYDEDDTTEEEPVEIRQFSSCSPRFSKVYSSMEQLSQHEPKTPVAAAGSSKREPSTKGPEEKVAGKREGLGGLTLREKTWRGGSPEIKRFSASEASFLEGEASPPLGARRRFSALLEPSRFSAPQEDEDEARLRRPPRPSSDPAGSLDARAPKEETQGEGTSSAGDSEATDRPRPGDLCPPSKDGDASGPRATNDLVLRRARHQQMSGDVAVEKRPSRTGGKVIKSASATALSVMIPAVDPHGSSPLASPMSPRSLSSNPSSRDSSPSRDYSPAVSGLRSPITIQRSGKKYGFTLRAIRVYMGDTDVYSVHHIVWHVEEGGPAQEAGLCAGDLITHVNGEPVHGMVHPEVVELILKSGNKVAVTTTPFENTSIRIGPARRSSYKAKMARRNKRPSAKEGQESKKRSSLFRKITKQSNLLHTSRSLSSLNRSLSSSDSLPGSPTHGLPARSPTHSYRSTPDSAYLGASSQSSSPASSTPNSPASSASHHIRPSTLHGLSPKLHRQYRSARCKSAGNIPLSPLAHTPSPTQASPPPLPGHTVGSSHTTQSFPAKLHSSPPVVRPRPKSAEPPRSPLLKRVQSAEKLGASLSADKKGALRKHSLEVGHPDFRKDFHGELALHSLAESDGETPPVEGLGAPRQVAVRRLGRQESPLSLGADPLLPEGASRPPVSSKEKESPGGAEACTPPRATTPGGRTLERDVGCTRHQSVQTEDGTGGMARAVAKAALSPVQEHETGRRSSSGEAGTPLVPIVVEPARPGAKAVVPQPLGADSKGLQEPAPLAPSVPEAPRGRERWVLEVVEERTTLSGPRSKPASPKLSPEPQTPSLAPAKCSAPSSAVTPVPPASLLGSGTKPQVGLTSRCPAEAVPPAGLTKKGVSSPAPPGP
Chain of RNASEL (Q05823 whole entry): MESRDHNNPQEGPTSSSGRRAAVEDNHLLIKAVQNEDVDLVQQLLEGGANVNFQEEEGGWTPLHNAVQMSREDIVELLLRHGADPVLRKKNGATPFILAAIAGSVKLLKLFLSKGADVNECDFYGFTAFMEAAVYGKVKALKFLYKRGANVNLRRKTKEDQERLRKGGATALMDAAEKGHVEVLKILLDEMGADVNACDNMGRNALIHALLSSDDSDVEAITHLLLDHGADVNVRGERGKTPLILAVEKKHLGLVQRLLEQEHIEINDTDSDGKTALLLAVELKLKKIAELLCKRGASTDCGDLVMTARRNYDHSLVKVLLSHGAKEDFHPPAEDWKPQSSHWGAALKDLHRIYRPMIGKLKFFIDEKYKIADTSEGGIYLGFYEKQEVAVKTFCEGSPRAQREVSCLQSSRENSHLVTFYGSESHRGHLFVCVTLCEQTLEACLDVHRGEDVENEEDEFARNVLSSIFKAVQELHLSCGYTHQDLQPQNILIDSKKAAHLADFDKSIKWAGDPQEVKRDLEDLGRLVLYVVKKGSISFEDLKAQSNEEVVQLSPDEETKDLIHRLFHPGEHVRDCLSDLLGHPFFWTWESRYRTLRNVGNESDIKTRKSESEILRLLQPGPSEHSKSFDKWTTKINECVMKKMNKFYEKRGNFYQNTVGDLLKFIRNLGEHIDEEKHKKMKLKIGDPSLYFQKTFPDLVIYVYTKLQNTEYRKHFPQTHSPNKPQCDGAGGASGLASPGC
Chain of TLK2 (Q86UE8 whole entry, looked up): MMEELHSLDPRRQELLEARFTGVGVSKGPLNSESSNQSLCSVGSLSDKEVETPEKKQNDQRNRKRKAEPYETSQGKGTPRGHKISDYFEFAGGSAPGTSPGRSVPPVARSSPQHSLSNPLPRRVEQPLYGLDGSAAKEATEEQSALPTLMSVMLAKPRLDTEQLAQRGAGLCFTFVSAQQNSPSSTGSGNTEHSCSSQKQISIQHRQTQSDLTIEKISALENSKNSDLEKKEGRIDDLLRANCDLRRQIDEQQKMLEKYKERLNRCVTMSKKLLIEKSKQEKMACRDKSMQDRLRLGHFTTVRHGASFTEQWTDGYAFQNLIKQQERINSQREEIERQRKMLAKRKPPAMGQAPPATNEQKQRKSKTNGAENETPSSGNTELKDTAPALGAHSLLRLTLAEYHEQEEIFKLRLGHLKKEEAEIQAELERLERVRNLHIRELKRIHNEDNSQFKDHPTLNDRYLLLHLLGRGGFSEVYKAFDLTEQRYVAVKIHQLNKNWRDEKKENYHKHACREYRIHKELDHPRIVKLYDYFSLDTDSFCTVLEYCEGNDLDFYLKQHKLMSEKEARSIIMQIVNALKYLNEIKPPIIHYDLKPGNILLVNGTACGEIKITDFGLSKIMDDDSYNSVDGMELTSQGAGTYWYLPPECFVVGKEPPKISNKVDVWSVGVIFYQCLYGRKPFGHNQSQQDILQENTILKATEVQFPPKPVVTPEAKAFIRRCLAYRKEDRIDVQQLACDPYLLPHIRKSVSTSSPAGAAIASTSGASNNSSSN
Chain of TLK1 (Q9UKI8 whole entry): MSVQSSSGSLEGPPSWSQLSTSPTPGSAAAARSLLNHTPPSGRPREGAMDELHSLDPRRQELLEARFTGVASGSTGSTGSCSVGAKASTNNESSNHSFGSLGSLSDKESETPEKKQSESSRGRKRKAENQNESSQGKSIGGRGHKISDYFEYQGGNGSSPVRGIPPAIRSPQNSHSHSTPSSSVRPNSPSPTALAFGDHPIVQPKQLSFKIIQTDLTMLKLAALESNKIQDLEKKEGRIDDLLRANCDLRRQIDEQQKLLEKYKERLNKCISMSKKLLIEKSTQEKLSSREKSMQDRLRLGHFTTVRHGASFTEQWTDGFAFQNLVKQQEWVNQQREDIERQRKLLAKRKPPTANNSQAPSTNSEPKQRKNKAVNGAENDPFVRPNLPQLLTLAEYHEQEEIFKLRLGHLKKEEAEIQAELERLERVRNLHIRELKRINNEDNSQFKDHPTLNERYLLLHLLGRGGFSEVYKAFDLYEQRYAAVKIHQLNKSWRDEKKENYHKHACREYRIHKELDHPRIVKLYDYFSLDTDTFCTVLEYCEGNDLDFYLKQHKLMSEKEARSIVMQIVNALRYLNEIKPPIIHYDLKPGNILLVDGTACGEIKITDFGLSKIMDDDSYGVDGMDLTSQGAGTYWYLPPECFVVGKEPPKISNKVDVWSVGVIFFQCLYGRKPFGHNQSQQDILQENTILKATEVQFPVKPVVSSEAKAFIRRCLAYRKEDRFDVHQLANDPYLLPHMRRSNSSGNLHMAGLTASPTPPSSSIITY

Row | Structure (SMILES) | pIC50 ([1]; cell material: Lysate mix) | pIC50 [2] | pIC50 [3] | pIC50 ([4]; cell material: Jurkat cells) | pIC50 ([4]; cell material: Jurkat lysate) | pIC50 [5] | pIC50 ([1]; cell material: Jurkat cells) | pIC50 [6] | pIC50 ([7]; cell material: Jurkat cells) | pIC50 ([7]; cell material: Jurkat lysate) | pIC50 [8] | pIC50 [9] | pIC50 ([10]; cell material: Jurkat cells) | pIC50 ([10]; cell material: Jurkat lysate)
1 | CCNC(=O)c1cc(Nc2cc(C)[nH]n2)nc(N2CCN(Cc3ccc(S(=O)(=O)F)cc3)CC2)n1 | 4.92 |  |  |  |  |  |  |  |  |  |  |  |  | 
2 | C#CCNC(=O)c1cc(Nc2cc(C3CC3)[nH]n2)nc(N2CCN(Cc3ccc(S(=O)(=O)F)cc3)CC2)n1 |  | < 4.52 | < 4.52 | 5.4 | < 4.52 | < 4.52 | 4.82 | < 4.52 | 5.47 | < 4.52 | 5.92 | < 4.52 | 5.19 | < 4.52
3 | O=C(NCCNC(=O)c1cc(Nc2cc(C3CC3)[nH]n2)nc(N2CCN(Cc3ccc(S(=O)(=O)F)cc3)CC2)n1)OC1CC/C=C/CCC1 (centres undefined) |  | < 4.52 | < 4.52 | < 4.52 | < 4.52 | < 4.52 |  | < 4.52 |  | < 4.52 | 4.57 | < 4.52 |  | < 4.52
